For one assay, the target named is FGFR4 (Homo sapiens (Human), UniProt P22455). The assay is described as follows: Enzyme binding assay (KINOMEscan) FGFR4.
A further assay has as its target VEGFR2 (Homo sapiens (Human), UniProt P35968). The assay is described as follows: Enzyme binding assay (KINOMEscan) VEGFR2.

Each structure is given as a SMILES string. Some results are limits rather than exact numbers.

Chain of VEGFR2 (P35968 20-1356): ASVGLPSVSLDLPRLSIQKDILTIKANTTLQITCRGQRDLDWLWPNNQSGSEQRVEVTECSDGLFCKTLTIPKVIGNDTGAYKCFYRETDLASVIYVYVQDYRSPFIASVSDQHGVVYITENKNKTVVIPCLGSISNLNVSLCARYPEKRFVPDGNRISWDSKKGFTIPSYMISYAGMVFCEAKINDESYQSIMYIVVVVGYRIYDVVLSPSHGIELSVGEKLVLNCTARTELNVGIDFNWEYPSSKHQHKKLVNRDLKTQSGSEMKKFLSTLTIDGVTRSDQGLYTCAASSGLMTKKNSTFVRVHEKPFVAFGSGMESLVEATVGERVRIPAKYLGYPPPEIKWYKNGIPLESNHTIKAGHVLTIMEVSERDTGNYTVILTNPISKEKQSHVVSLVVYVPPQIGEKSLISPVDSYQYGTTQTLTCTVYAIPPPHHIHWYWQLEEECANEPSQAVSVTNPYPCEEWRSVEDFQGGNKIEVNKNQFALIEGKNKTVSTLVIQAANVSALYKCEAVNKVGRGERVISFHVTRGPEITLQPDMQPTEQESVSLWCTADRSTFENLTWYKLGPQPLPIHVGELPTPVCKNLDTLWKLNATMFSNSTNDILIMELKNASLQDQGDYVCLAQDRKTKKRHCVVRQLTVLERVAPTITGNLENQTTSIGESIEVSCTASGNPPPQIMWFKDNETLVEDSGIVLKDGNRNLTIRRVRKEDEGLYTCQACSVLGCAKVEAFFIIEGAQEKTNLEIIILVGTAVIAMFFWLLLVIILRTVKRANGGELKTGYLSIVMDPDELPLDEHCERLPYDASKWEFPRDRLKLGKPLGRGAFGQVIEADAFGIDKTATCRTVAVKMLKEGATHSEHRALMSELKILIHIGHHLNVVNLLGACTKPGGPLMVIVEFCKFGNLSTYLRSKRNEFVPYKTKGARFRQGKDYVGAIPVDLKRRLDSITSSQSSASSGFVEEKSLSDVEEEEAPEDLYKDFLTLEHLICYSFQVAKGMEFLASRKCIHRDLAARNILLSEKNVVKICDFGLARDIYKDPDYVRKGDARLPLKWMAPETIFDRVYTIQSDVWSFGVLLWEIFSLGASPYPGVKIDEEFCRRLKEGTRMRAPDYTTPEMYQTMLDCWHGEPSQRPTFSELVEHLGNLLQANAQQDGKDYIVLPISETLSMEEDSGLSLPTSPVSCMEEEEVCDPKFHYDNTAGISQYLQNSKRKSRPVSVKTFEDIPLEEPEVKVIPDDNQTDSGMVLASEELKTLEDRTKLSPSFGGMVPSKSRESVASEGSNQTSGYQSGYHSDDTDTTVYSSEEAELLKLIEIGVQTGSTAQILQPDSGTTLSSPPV
Chain of FGFR4 (P22455 22-802): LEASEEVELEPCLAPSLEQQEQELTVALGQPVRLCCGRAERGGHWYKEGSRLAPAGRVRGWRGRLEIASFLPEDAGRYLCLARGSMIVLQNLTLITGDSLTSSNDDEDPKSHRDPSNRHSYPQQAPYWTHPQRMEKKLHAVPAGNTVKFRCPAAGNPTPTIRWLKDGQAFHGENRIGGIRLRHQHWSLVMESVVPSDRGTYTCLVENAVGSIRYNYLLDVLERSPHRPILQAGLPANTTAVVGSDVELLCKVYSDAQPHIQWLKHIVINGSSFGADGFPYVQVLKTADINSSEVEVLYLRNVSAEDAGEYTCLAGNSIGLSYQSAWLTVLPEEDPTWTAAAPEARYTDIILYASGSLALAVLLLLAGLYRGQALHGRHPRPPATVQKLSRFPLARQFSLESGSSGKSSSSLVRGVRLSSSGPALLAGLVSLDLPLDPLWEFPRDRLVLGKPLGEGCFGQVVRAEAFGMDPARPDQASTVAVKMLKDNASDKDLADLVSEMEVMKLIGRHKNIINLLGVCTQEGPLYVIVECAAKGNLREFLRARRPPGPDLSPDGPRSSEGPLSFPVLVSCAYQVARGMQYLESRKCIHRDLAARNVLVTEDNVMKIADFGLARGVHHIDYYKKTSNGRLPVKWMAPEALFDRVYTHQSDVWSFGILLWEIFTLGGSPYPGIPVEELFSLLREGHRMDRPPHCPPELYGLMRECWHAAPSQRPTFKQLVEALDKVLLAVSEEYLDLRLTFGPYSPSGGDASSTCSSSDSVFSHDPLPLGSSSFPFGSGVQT

The Kd is the equilibrium constant for the complex coming apart. A lower Kd goes with higher affinity. Take `COc1cc(O)cc2c1CN(C(C)C)CCN2c1ccc2ncc(-c3cnn(C)c3)nc2c1` [Compound 4]: the Kd at FGFR4 and at VEGFR2 was more than 3000 nM throughout.

For the compound `COc1cc(OC)c2c(c1)N(c1ccc3ncc(-c4cnn(C)c4)nc3c1)CCCN(C(C)C)C2` [Compound 9], the Kd came to 355 nM on FGFR4 and 922 nM on VEGFR2.

Regarding `COc1cc(OC)c2c(c1)N(c1ccc3ncc(-c4cn[nH]c4)nc3c1)CCN(C(C)C)C2` [Compound 2], the equilibrium dissociation constant (Kd) at FGFR4 was found to be 68 nM; at VEGFR2 it was 741 nM.

On to `CCn1cc(-c2cnc3ccc(N4CCN(C)Cc5c(OC)cc(OC)cc54)cc3n2)cn1` [Compound 6], for which the equilibrium dissociation constant (Kd) on FGFR4 and on VEGFR2 was more than 3000 nM each time.

On to `COc1cc(O)c2c(c1)N(c1ccc3ncc(-c4cnn(C)c4)nc3c1)CCN(C(C)C)C2` [Compound 3], for which the dissociation constant (Kd) at FGFR4 was 1900 nM; on VEGFR2 it was more than 3000 nM.

Turning to `CCn1cc(-c2cnc3ccc(N4CCN(C(C)C)Cc5c(OC)cc(OC)cc54)cc3n2)cn1` [Compound 7], the Kd on FGFR4 is 230 nM; at VEGFR2, 1700 nM.
